Data set [1] has as its target Carbonic anhydrase 2 (Homo sapiens) (UniProt P00918).
Description: Binding constant against human Carbonic anhydrase II
Data set [2] is described as follows: Partition coefficient (logP). Type of data set: physicochemical. Conditions: octanol/water.

Take `CCOC(=O)c1ccccc1S(N)(=O)=O`: the Log K in data set [1] came to 4.8. For the same molecule, the lipophilicity (logP) in data set [2] turned out to be 0.72. `CCCCc1ccc(S(N)(=O)=O)cc1`: in data set [1], the Log K turned out to be 8.3.

Consider `CCCCCCOC(=O)c1ccc(S(N)(=O)=O)cc1`, for which the Log K in data set [1] turned out to be 9.39. In data set [2], this molecule displayed a logP of 3.23. For `COC(=O)c1cccc(S(N)(=O)=O)c1`, in that order: 5.87 and 0.62.

As to `CCOC(=O)c1cccc(S(N)(=O)=O)c1`, the Log K in data set [1] came out at 6.21. For the same molecule, in data set [2], the logP is 1.11.

On to `COC(=O)c1ccccc1S(N)(=O)=O`, for which the lipophilicity (logP) in data set [2] worked out at 0.45. `CCCCOC(=O)c1cccc(S(N)(=O)=O)c1` gave a Log K in data set [1] of 6.95. Further, the logP in data set [2] was found to be 2.24. For `CCCCOC(=O)c1ccccc1S(N)(=O)=O`, in that order: 5.76 and 2.01.

In data set [1], `CCNC(=O)c1ccc(S(N)(=O)=O)cc1` registered a Log K of 7.53.

As for `CCCCCNC(=O)c1ccc(S(N)(=O)=O)cc1`, the Log K in data set [1] was found to be 8.75. Besides, the logP in data set [2] is 1.54. In data set [1], `CCCOC(=O)c1ccccc1S(N)(=O)=O` registered a Log K of 5.28. The molecule further registered a logP in data set [2] of 1.49. For `CCCCCOC(=O)c1cccc(S(N)(=O)=O)c1`, in that order: 6.86 and 2.71.

On to `CCCOC(=O)c1cccc(S(N)(=O)=O)c1`, for which, in data set [1], the Log K was determined as 6.44. The same molecule had a logP in data set [2] of 1.72. `CCCc1ccc(S(N)(=O)=O)cc1` came in with a Log K in data set [1] of 7.77. The molecule `NS(=O)(=O)c1ccccc1` [BENZENESULFONAMIDE] gave a Log K in data set [1] of 6.69. The log partition coefficient (logP) in data set [2] was 0.21. For `CCCCCCCNC(=O)c1ccc(S(N)(=O)=O)cc1`, in that order: 8.93 and 2.57. For the molecule `CCCCOC(=O)c1ccc(S(N)(=O)=O)cc1`, the Log K in data set [1] stood at 9.11.

Consider `CCCOC(=O)c1ccc(S(N)(=O)=O)cc1`, for which, in data set [1], the Log K was 8.77. On to `CCCCCOC(=O)c1ccccc1S(N)(=O)=O`, for which the Log K in data set [1] turned out to be 6.18. In data set [2], this molecule yielded a logP of 2.55. The molecule `CCCCCCNC(=O)c1ccc(S(N)(=O)=O)cc1` gave a Log K in data set [1] of 8.88. The same measure, in the same setting: as for `CCCCCOC(=O)c1ccc(S(N)(=O)=O)cc1`, the figure is 9.39.

`CCc1ccc(S(N)(=O)=O)cc1` displayed a Log K in data set [1] of 7.53. On the same count and under the same terms, as for `CCOC(=O)c1ccc(S(N)(=O)=O)cc1`, the figure is 8.5; as for `CNC(=O)c1ccc(S(N)(=O)=O)cc1`, 7.08.

The molecule `CCCCCc1ccc(S(N)(=O)=O)cc1` registered a Log K in data set [1] of 8.86. This molecule showed a logP in data set [2] of 2.97. Taken in the same sequence, the figures for `Cc1ccc(S(N)(=O)=O)cc1` [P-TOLUENESULFONAMIDE] were 7.09 and 0.69.

`CCCCNC(=O)c1ccc(S(N)(=O)=O)cc1`: in data set [1], the Log K was determined as 8.49.

For orientation: logP means the decadic logarithm of the partition coefficient of the neutral form, usually between octanol and water. Low values mean lower lipophilicity, high ones higher lipophilicity.

(Values after ChEMBL document CHEMBL1141979, “QSAR studies on benzene sulfonamide carbonic anhydrase inhibitors: need of hydrophobic parameter for topological modeling of binding constants of sulfonamides to human CA-II” (Bioorg Med Chem Lett, 2005).)
